In patent US12698523B2, “Enhancement of nucleic acid polymerization by aromatic compounds” (priority 2019, dated 2026):

How the values were obtained:
[1] = system: DNA polymerase; test: Screen of PEMs for enhancement of XNTP polymerization (primer extension reaction, gel electrophoresis); format: biochemical; conditions: for DNA polymerase-mediated primer extension with XNTPs (length of extension products): FIG. 4 gel, no PEM additive: up to only around 14 XNTPs
Excerpt: The Sequencing by Expansion (SBX) methodology developed by the inventors provides significant performance enhancements in sequence read efficiency and accuracy of Xpandomers relative to native DNA. However, initial transcription of the sequence of the natural DNA template onto the measurable Xpandomer relies on the ability of DNA polymerase to utilize XNTPs as substrates (the generalized structure of an XNTP is discussed herein with reference to FIG. 1A and FIG. 2). […] In an effort to improve the efficiency and accuracy of XNTP polymerization into Xpandomers, several PEMs were screened for the ability to enhance DNA polymerase primer extension reactions using XNTPs as substrates.
A representative primer extension reaction may include the following reagents: 2 pmol primer, 2.2 pmol 45mer oligonucleotide template, 50 pmol of each XNTP (XATP, XCTP, XGTP, and XTTP), 50 Mm Tris HCl, Ph 6.79, 200 Mm NaCl, 20% PEG, 5% NMS, 0.5 nmol polyphosphate 60.19, 0.3 Mm MnCl2, and 0.6 μg of purified recombinant DNA polymerase protein. Reactions may be run for 1 hr at 23° C. Reaction products (i.e., constrained Xpandomers) are treated to cleave the phosphoramidate bonds, thereby generating linearized Xpandomers. Reaction products may be analyzed using gel electrophoresis on 4-12% acrylamide gels to resolve and visualize Xpandomer products of different lengths. For the PEM screen described above, PEMs were typically tested in the micro to millimolar range.
Again, this PEM activity is specific for compound 2, as other unrelated aromatic compounds had no effect (lanes 2-7).

[2] = biological target: T1, C4760 DNA polymerase (a variant of DPO4, SEQ ID NO:2) (Saccharolobus solfataricus, UniProt Q97W02, A155G/A42V/D156R/D292Y/D294N/E291S/E324K/E325K/E327K/E63R/E79L/G187P/G299W/I153V/I189F/I248T/I295S/K152A/K317Q/K321Q/K56Y/K78D/L293W/M76W/N188Y/P184Q/Q82W/Q83G/R300S/S297Y/S86E/T290K/T301W/V289W/V296Q); test: Primer extension on a 45mer RNA template derived from the HIV2 genome sequence; format: biochemical, Sulfolobus solfataricus; conditions: 2 Mm PEM; 45mer RNA template from HIV2 genome; 30 minutes at 37° C.
T1 construct: made in house
T1 sequence (Q97W02 other isoform, or with tags, fused parts or gaps with the stated changes): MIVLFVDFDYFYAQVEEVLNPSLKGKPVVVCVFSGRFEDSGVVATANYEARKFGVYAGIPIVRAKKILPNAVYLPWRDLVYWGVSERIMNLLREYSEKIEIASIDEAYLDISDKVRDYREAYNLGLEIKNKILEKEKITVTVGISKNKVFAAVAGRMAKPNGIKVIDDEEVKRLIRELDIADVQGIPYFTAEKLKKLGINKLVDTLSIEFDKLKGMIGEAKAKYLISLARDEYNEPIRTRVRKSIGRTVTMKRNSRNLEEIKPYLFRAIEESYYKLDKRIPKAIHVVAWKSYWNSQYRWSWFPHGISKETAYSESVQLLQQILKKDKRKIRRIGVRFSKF
Protocol: To begin to investigate the potential of PEMs to enhance diverse polymerase reactions, the ability of PEMS to enable DNA polymerase to utilize RNA as a template was tested. An initial screen of several compounds set forth in Table I was conducted using a 45mer RNA template derived from the HIV2 genome sequence. Primer extension reactions included the following reagents: 50 Mm TrisCl, 200 Mm NH4Oac, 20% PEG8K, 5% NMS, 0.6 nmol PP-60.20, 0.6 Mm MnCl2, 2 μg Kod single-strand binding protein (SSB), 1 M urea, 50 pmol each XNTP, 0.5 pmol template, 0.5 pmol oligonucleotide primer, 1.2 μg purified recombinant C4760 DNA polymerase (a variant of DPO4, see SEQ ID NO:2), and 2 Mm PEM. 10 μL primer extension reactions were run for 30 minutes at 37° C. and reaction products were analyzed by gel electrophoresis.

[3] = biological target: T1, C4760 DNA polymerase (a variant of DPO4, SEQ ID NO:2); test: Primer extension assay with the HIV2 100mer template; format: biochemical, Sulfolobus solfataricus; conditions: HIV2-derived 100mer template; for polymerization of XNTPs into lengthy Xpandomer copies (PEM activity): 2 Mm compound 16, 0.5, 1, 2, and 3 Mm compound 17, Kod SSB, 30 minutes at 37° C., FIG. 13
Protocol: PEM activity of compound 12 was tested in primer extension assays using the HIV2 100mer template. Primer extension reactions included the following reagents: 50 Mm TrisCl, 200 Mm NH4Oac, 20% PEG8K, 5% NMS, 0.6 nmol PP-60.20, 0.6 Mm MnCl2, 2.75 μg/μl Eco single-strand binding protein (SSB), 1 M urea, 50 pmol each XNTP, 1.1 pmol template, 1 pmol oligonucleotide primer, 1.2 μg/μl purified recombinant C4760 DNA polymerase (SEQ ID NO:2), and 0.5, 1, or 1.5 Mm PEM. 10 μL primer extension reactions were run for 30 minutes at 23° C. and reaction products were analyzed by gel electrophoresis. […] Lanes 2-4 show primer extension products from reactions with a structurally related additive lacking robust PEM activity.
PEM activity of compounds 13 and 14 was tested in primer extension assays using the HIV2 100mer template. Primer extension reactions included the following reagents: 50 Mm TrisCl, 200 Mm NH4Oac, 20% PEG8K, 5% NMS, 0.6 nmol PP-60.20, 0.6 Mm MnCl2, 2.75 μg/μl Eco single-strand binding protein (SSB), 1 M urea, 50 pmol each XNTP, 1.1 pmol template, 1 pmol oligonucleotide primer, 1.2 μg/μl purified recombinant C4760 DNA polymerase (a variant of DPO4, see SEQ ID NO:2), and 0.5, 1, 1.52, or 2.5 Mm PEM. 10 μL primer extension reactions were run for 30 minutes at 23° C. and reaction products were analyzed by gel electrophoresis. A representative gel showing primer extension products is presented in FIG. 11 (the position of the full length HIV2 100mer is indicated by the arrow).
PEM activity of compounds 16, 17, and 18 and combinations thereof were tested in primer extension assays using the HIV2-derived 100mer template. Primer extension reactions included the following reagents: 50 Mm TrisCl, 200 Mm NH4Oac, 20% or 25% PEG8K, 5% NMS, 0.6 nmol PP-60.20, 0.6 Mm MnCl2, 2 μg Kod single-strand binding protein (SSB), 1 M urea, 50 pmol each XNTP, 1 pmol template, 1 pmol oligonucleotide primer, 1.2 μg purified recombinant C4760 DNA polymerase (a variant of DPO4, see SEQ ID NO:2), and 0.5-2 Mm PEM. 10 μL primer extension reactions were run for 30 minutes at 37° C. and reaction products were analyzed by gel electrophoresis. A representative gel showing primer extension products is presented in FIG. 13 (the position of a 100mer product is indicated by the arrow).

[4] = biological target: T2, C4552 DNA polymerase (Saccharolobus solfataricus, UniProt Q97W02, A155G/A42V/D156R/D292Y/D294N/E291S/E324K/E325K/E327K/E79L/G187P/G299W/I153V/I189F/I248T/I295S/K152A/K317Q/K321Q/K56Y/K78D/L293W/M76W/N188Y/P184Q/Q82W/Q83G/R300S/S297Y/S86E/T290K/T301W/V289W/V296Q); test: Primer extension assay with three 100mer templates derived from the HIV1, 2 and 3 genomes; format: biochemical, Sulfolobus solfataricus; conditions: 0.5 Mm PEM; HIV1, HIV2, HIV3 100mer templates; 30 minutes at 23° C.; FIG. 9
T2 construct: made in house
T2 sequence (Q97W02 other isoform, or with tags, fused parts or gaps with the stated changes): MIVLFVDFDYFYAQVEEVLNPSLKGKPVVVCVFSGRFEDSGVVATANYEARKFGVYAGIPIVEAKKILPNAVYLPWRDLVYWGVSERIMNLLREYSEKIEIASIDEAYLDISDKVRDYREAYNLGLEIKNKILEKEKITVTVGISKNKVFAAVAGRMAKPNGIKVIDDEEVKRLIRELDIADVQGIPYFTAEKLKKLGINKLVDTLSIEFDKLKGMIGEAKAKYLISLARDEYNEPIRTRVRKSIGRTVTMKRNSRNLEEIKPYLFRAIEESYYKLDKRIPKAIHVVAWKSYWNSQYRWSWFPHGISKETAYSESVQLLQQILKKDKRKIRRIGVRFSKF
Protocol: PEM activity of compounds 9-11 was tested in primer extension assays using three 100mer templates, derived from the HIV1, 2, and 3 genomes. Primer extension reactions included the following reagents: 75 Mm TrisCl, Ph 8.44, 175 Mm NH4Oac, 20% PEG8K, 5% NMS, 0.8 nmol PP-60.20, 0.6 Mm MnCl2, 2.3 μg Tth single-strand binding protein (SSB), 0.5 M or 1 M urea, 200 pmol each XNTP, 1.1 pmol template, 1 pmol oligonucleotide primer, 1.2 μg purified recombinant C4552 DNA polymerase, and 0.5 Mm PEM. 10 μL primer extension reactions were run for 30 minutes at 23° C. and reaction products were analyzed by gel electrophoresis.

O=C(O)c1ccc(-n2cc(-c3ccc4[nH]c5ccc(-c6cn(-c7ccc(C(=O)O)c(O)c7)nn6)cc5c4c3)nn2)cc1O [Compound 4, 4,4′-((9H-carbazole-3,6-diyl)bis(1H-1,2,3-triazole-4,1-diyl))bis(2-hydroxybenzoic acid)]
DNA polymerase-mediated primer extension with XNTPs (length of extension products) [1]: considerably longer extension products

CCNC(=O)c1cc(-c2cn(-c3ccc(C(=O)O)c(O)c3)nn2)nc(-c2cn(-c3ccc(C(=O)O)c(O)c3)nn2)c1 [Compound 17, 4,4′-((4-(ethylcarbamoyl)pyridine-2,6-diyl)bis(1H-1,2,3-triazole-4,1-diyl))bis(2-hydroxybenzoic acid)]
PEM activity on an RNA template [2]: display PEM activity on an RNA template | polymerization of XNTPs into lengthy Xpandomer copies (PEM activity) [3]: enable polymerization of XNTPs into lengthy Xpandomer copies of the 100mer template in a manner comparable to that of compound 14 | polymerization of XNTPs into lengthy Xpandomer copies, combination of PEMs ([3]; combination of 2 Mm compound 14 and 0.1 Mm or 0.3 Mm compound 17, FIG. 13 lanes 7-9): also enabled polymerization of XNTPs into lengthy Xpandomer copies of the 100mer template

O=C(O)c1ccc(-n2cc(-c3cccc(-c4cn(-c5ccc(C(=O)O)c(O)c5)nn4)c3)nn2)cc1O [Compound 3, 4,4′-(1,3-phenylenebis(1H-1,2,3-triazole-4,1-diyl))bis(2-hydroxybenzoic acid)]
DNA polymerase-mediated primer extension with XNTPs (length of extension products) [1]: considerably longer extension products

O=C(O)c1ccc(-n2cc(-c3cncc(-c4cn(-c5ccc(C(=O)O)c(O)c5)nn4)c3)nn2)cc1O [Compound 2, 4,4′-(pyridine-3,5-diylbis(1H-1,2,3-triazole-4,1-diyl))bis(2-hydroxybenzoic acid)]
primer extension activity with XNTPs ([1]; FIG. 5 gel, compound at various concentrations (lanes 8-10)): significantly enhances primer extension activity

COC(=O)c1cc(-c2cn(-c3ccc(C(=O)O)c(O)c3)nn2)nc(-c2cn(-c3ccc(C(=O)O)c(O)c3)nn2)c1 [Compound 16, 4,4′-((4-(methoxycarbonyl)pyridine-2,6-diyl)bis(1H-1,2,3-triazole-4,1-diyl))bis(2-hydroxybenzoic acid)]
polymerization of XNTPs into lengthy Xpandomer copies (PEM activity) [3]: enable polymerization of XNTPs into lengthy Xpandomer copies of the 100mer template in a manner comparable to that of compound 14 | polymerization of XNTPs into full length copies, combination of PEMs ([3]; combination of 2 Mm compound 16 and 0.1 Mm or 0.3 Mm compound 18, FIG. 13 lanes 10-12): enable polymerization of XNTPS into full length copies of the 100mer template

COc1cc(-c2cn(-c3ccc(C(=O)O)c(O)c3)nn2)nc(-c2cn(-c3ccc(C(=O)O)c(O)c3)nn2)c1 [Compound 9, 4,4′-((4-methoxypyridine-2,6-diyl)bis(1H-1,2,3-triazole-4,1-diyl))bis(2-hydroxybenzoic acid)]
polymerization of XNTPs into full length Xpandomer copies (PEM activity) [4]: enable XNTP polymerization at least as efficiently as compound 1

O=C(O)c1ccc(-n2cc(-c3cc([N+](=O)[O-])cc(-c4cn(-c5ccc(C(=O)O)c(O)c5)nn4)n3)nn2)cc1O [Compound 11, 4,4′-((4-nitropyridine-2,6-diyl)bis(1H-1,2,3-triazole-4,1-diyl))bis(2-hydroxybenzoic acid)]
polymerization of XNTPs into full length Xpandomer copies (PEM activity) [4]: enable XNTP polymerization at least as efficiently as compound 1
